Test results reported in patent publication US6709840B1, “Anergy associated genes” (The Board of Trustees of the Leland Stanford Junior …, priority 2000, dated 2004).

How the values were obtained:
Type in all cases: cell-based, murine
11.3.7 T cells = test: Anergy assay: proliferation on restimulation (3H-Thymidine)
Experimental: Anergy Assays. Resting 11.3.7 T cells were purified on a Lympholyte M (Cedarlane Labs) gradient and washed three times with 1×PBS. Costimulatory incompetent APCs, (B7 negative RT 7.7 fibroblasts), were irradiated at 3000 rads prior to use in antigen-induced anergy cultures. 6×10^6 T cells were mixed with 6×10^6 B7 negative RT7.7 APCs in 20 mls of culture media. […] For ionomycin-induced anergy, 2×10^6 11.3.7 T cells were incubated with 1.5 μM ionomycin (Calbiochem). For full activation, 1 μg/ml PMA was added to the cultures.
At selected time intervals, aliquots of both cultures were harvested, pelleted, and washed twice before adding 10 μl of anti-CD4 microbeads (Millenyl Biotech) to separate CD4+ T cells from the RT 7.7 fibroblast APCs, according to the manufacturer's protocol. As determined by flow cytometry, greater than 95% purity was routinely achieved. To test for the anergic phenotype, 50×10^4 T cells/well were then cultured with irradiated DBA/2 splenocytes and various concentrations of peptide in a 96 well plate. In selected cultures, murine rIL-2 (Genzyme) was added at 5 Units/ml during the restimulation period, to test the viability of the anergized T cells. After 48 hours of culture, the cells were pulsed for 18 hours with 3H-Thymidine, then harvested and counted.

[1] = tested on: IL-2 mRNA in 11.3.7 T cells; test: Real-time quantitative PCR of IL-2 message; details: 4 hours ionomycin vs PMA and ionomycin (100%)
Experimental: (§1) “Real-time” Quantitative PCR. Total RNA was isolated as described above and 0.5 μg was reversed transcribed using the TaqMan reverse transcription reagent kit (PE Applied Biosystems) according to recommended protocols. Subsequently, 1 μl aliquots of cDNA (equivalent to 5 ng of input RNA) were amplified in separate reactions with primer pairs and fluorescent probe sets specific for GAPDH (to generate a standard curve to control for input cDNA amounts) and for target mRNAs identified in the differential display screen. Resting, activated and anergic RNA samples were also amplified using specific primers and a probe for IL-2. Standard cycling conditions and PCR protocols were used for the ABI PRISM 7700 Sequence Detection System (PE Applied Biosystems). […]
(§2) Using the relative standard curve method described in protocols provided by ABI, changes in target RNA expression for the different ddPCR cDNA clones and IL-2 were calculated as fold increases over resting cells. To control for input RNA amounts, the relative amount of GAPDH RNA was determined for each sample (resting, anergic, and activated) from a standard curve generated for GAPDH. […] Standard curves for both target genes and GAPDH were determined by quantitative PCR reactions using serial dilutions of known amounts of cDNA or plasmids containing relevant inserts.

[2] = tested on: 9.3.1-2 (MRC-OX44) mRNA in 11.3.7 T cells; test: Real-time quantitative PCR of ddPCR clone 9.3.1-2
Experimental: as §1, §2

[3] = tested on: 19.9.6-3 (Nurr2) mRNA in 11.3.7 T cells; test: Real-time quantitative PCR of ddPCR clone 19.9.6-3
Experimental: as §1, §2

[4] = tested on: 6.5.2-4 (lymphotactin) mRNA in 11.3.7 T cells; test: Real-time quantitative PCR of ddPCR clone 6.5.2-4
Experimental: as §1, §2

[5] = tested on: A9.5.7-4 (cbl-b) mRNA in 11.3.7 T cells; test: Real-time quantitative PCR of ddPCR clone A9.5.7-4
Experimental: as §1, §2

[6] = tested on: 1-4 (GRAIL) mRNA in 11.3.7 T cells; test: Real-time quantitative PCR of ddPCR clone 1-4
Experimental: as §1, §2

[7] = fold over resting T cells (1.0), GAPDH normalized
[8] = ionomycin-induced anergy (ion vs PMA/ion)

Row | Molecule | ionomycin-induced anergy (11.3.7 T cells; 1.5 μM ionomycin, 6 hours incubation) | induction of functional unresponsiveness (11.3.7 T cells; 1.5 μM ionomycin, one hour incubation) | IL-2 mRNA level relative to activated cells [1] [%] | 9.3.1-2 mRNA expression, Anergic + ion [2, 7] [fold] | 9.3.1-2 anergic:activated ratio [2, 8] [fold] | 19.9.6-3 mRNA expression, Anergic + ion [3, 7] [fold] | 19.9.6-3 anergic:activated ratio [3, 8] [fold] | 6.5.2-4 mRNA expression, Anergic + ion [4, 7] [fold] | 6.5.2-4 anergic:activated ratio [4, 8] [fold] | A9.5.7-4 mRNA expression, Anergic + ion [5, 7] [fold] | A9.5.7-4 anergic:activated ratio [5, 8] [fold] | 1-4 mRNA expression, Anergic + ion [6, 7] [fold] | 1-4 anergic:activated ratio [6, 8] [fold] | proliferative response of anergized T cells with IL-2 added (11.3.7 T cells; antigen-induced anergy, rIL-2 5 Units/ml during restimulation) | unresponsiveness with IL-2 added to restimulation cultures (11.3.7 T cells; ionomycin-induced anergy, rIL-2 5 Units/ml during restimulation)
1 | C[C@H](CCC(=O)O)C[C@H](C)C[C@H](C)C(=O)/C=C(\O)[C@H](C)C[C@H](C)C/C=C/[C@@H](C)[C@@H](O)[C@@H](C)[C@@H](O)C[C@@H]1CC[C@@](C)([C@H]2CC[C@@](C)([C@@H](C)O)O2)O1 [Ionomycin, ionomycin] | complete | did not induce a state of functional unresponsiveness | ≤ 0.5 | 10.2 | 0.71 | 21.7 | 1.1 | 153 | 0.84 | 11.0 | 1.4 | 4.0 | 3.3 |  | 
2 | IL-2: murine rIL-2 (Genzyme), 5 Units/ml during restimulation (protein, UniProt P04351 21-169, looked up) Interleukin-2: APTSSSTSSSTAEAQQQQQQQQQQQQHLEQLLMDLQELLSRMENYRNLKLPRMLTFKFYLPKQATELKDLQCLEDELGPLRHVLDLTQSKSFQLEDAENFISNIRVTVVKLKGSDNTFECQFDDESATVVDFLRRWIAFCQSIISTSPQ |  |  |  |  |  |  |  |  |  |  |  |  |  | induced as strong a proliferative response in the anergized T cells as it did in the resting, control T cells | overcome
